Measured values reported in patent US20150265682A1, “THERAPEUTIC METHODS AND COMPOSITIONS FOR TREATING DIABETES” (Orient Europharma Co., Ltd., priority 2014, published 2015).

What was measured:
[1] = system: liver of normal, type 1 DM and type 2 DM mice; assay: Glycogen content in liver in vivo (borapetoside A); design: species or system ICR mice; conditions: borapetoside A 10 mgkg^−1 i.p. 60 minutes, insulin 0.5 IUkg^−1
Method: (§1) After three days of acclimatization, the mice had free access to a standard rodent chow (normal mice), a standard rodent chow after single […] streptozotocin (STZ) intraperitoneal injection (T1DM mice), and a fat-rich chow diet and fructose-sweetened water (T2DM mice) for 4 weeks. The induction of Type 1 DM was assessed and confirmed when the mice had plasma glucose levels ≧350 mgdL^−1, accompanied with polyuria, hyperphagia and decreased body weight. The induction Type 2 DM in the mice was assessed by measuring fasting plasma glucose levels and confirmed when plasma glucose level was ≧150 mgdL^−1 after the 4-week induction. The animals were assigned randomly into three groups, with seven animals in each group. In group I, the mice were treated with vehicle, 2% DMSO in normal saline, as the negative control. In group II, the mice were intraperitoneally treated with borapetoside A (0.1-10 mgkg^−1). In group Ill, the positive control, the mice received intraperitoneally metformin (300 mgkg^−1; Sigma Chemical Co., St. Louis, Mo., U.S.A.) or insulin (0.5 IUkg^−1; Insulin Actrapid® HM; Novo Nordisk, Denmark). In the acute study, mice under anesthesia received a single intraperitoneal administration of borapetoside A, negative control, or positive control. In the subacute study, mice received intraperitoneal administrations of borapetoside A, vehicle, or insulin twice a day for seven days.
(§2) The mice were injected with borapetoside A (10 mgkg^−1, interperitoneal) for 60 minutes or insulin (0.5 IUkg^−1, interperitoneal) for 30 minutes. After the treatment, the anesthetic mice were sacrificed by cervical dislocation to collect the soleus muscle and liver. About 40 mg of each sample was dissolved in 1 mol/L KOH at 75° C. for 30 min. The dissolved homogenate was neutralized by glacial acetic acid and then incubated overnight in acetate buffer (0.3 mol/L sodium acetate, pH 4.8) containing amyloglucosidase (Sigma, St. Louis, Mo.). The mixture was then neutralized with 1 mol/L NaOH to stop the reaction. The glycogen contents in the tissue samples were determined as μg of glucose per mg of tissue (wet weight).

[2] = system: soleus muscle of normal, T1DM and T2DM mice; assay: Glycogen content of skeletal muscle (borapetoside C or insulin); assay type: in vivo, ICR mice; conditions: borapetoside C 5 mg/kg i.p., insulin (Actrapid) 0.5 IU/kg i.p.
Method: This study was conducted following the University ethical guidelines on animal experimentation and complied with the Guide for the Care and Use of Laboratory Animals published by the US National Institutes of Health (NIH publication no. 85-23, revised 1996). The animal facility was well controlled for temperature (22±1° C.), and humidity (60±5%) and a 12 h/12 h light-dark cycle was maintained with access to food and water ad libitum. Four-week-old male ICR mice were acquired from BioLasco Taiwan Co., Ltd. and maintained at College of Medicine Experimental Animal Center, National Taiwan University. The study was conducted on 8-10 week-old male ICR mice.
(§3) T1DM mice were induced by a known method. In brief, an intraperitoneal injection of streptozotocin (STZ; Sigma Chemical Co.; St. Louis, Mo.) at 150 mg/kg was performed in mice that were fasted for 48 h. The induction of T1DM was assessed and confirmed when the mice had plasma glucose levels ≧350 mg/dL, accompanied with polyuria, hyperphagia and decreased body weight. The control mice group received an injection of vehicle and then carried out for 4 weeks. T2DM mice were induced by maintaining on a fat-rich chow diet and fructose-sweetened water for 4 weeks from the age of 4-5 weeks according to previous methods. The induction T2DM mice were assessed by measuring fasting plasma glucose levels and confirmed when plasma glucose level was ≧150 mg/dL after a 4-week induction.
Glycogen content of skeletal muscles was measured by a known method. In brief, mice were injected with borapetoside C (5.0 mg/kg, interperitoneal) for 60 min or insulin (0.5 IU/kg, interperitoneal.) for 30 min, and the soleus muscle was isolated from anesthetized mice. About 40 mg of muscle sample was dissolved in 1 N KOH at 75° C. for 30 min. The dissolved homogenate was neutralized by glacial acetic acid and then incubated overnight in acetate buffer (0.3 M sodium acetate, pH 4.8) containing amyloglucosidase (Sigma, St. Louis, Mo.). The mixture was then neutralized with 1 N NaOH to stop the reaction. The glycogen contents in the tissue samples were determined as μg of glucose per mg of tissue (wet weight).

[3] = system: soleus muscle of normal, type 1 DM and type 2 DM mice; assay: Glycogen content in soleus muscle in vivo (borapetoside A); design: species or system ICR mice; conditions: borapetoside A 10 mgkg^−1 i.p. 60 minutes, insulin 0.5 IUkg^−1
Method: as §1, §2

[4] = system: normal, T1DM and T2DM mice; assay: Insulin tolerance test (ITT): activity of lowering plasma glucose (AL); assay type: in vivo, ICR mice; conditions: 30 min after insulin
Method: as §3
Blood samples were collected from the orbital vascular plexus of mice under anesthesia with sodium pentobarbital (80 mg/kg, intraperitoneal, Sigma Chemical Co., St. Louis, Mo., USA). Blood samples were then centrifuged at 13000 rpm for 5 min, and the plasma was kept on ice prior to the assay. The plasma glucose concentration was measured using commercial kits following manufacturer's instructions (BioSystems S. A., Barcelona, Spain).
To perform OGTT, mice were fasted overnight, divided into 2 groups and then administered a vehicle control and 5 mg/kg borapetoside C. This was followed by administration of a glucose solution at 2 g/kg via tube feeding. Blood samples were withdrawn from the orbital vascular plexus at intervals of 30, 60, 120, and 150 min after glucose administration. For the ITT, mice were fasted for 3 h. Human insulin (Insulin Actrapid) HM; Novo Nordisk, Denmark) was injected intraperitoneally after an intraperitoneal administration of 0.1 mg/kg borapetoside C for 30 min. Blood samples were collected from the orbital vascular plexus at the timed intervals mentioned above.
Therefore, the effects of borapetoside C on insulin tolerance were tested in this study. The non-diabetic, T1DM, and T2DM mice were injected with insulin at various doses (i.e., 0.1 IU/kg, 0.5 IU/kg, and 1.0 IU/kg) in conjunction with either borapetoside C (0.1 mg/kg) or a vehicle control (Table 3), and their plasma glucose levels were examined before and 30 min after insulin injection. The activity of lowering plasma glucose levels (AL) was calculated by the formula: (Gi−Gt)/Gi×100%, where the Gi was the initial glucose concentration and G1 was the plasma glucose concentration after 30-min treatment with insulin. Insulin reduced the plasma glucose levels in both normal and diabetic mice, and the glucose levels were further decreased when insulin was co-administered with borapetoside C to the mice.

[5] = Normal mice, insulin 0.1 IU/kg with borapetoside C 0.1 mg/kg or vehicle
[6] = Normal mice, insulin 0.5 IU/kg with borapetoside C 0.1 mg/kg or vehicle
[7] = Normal mice, insulin 1.0 IU/kg with borapetoside C 0.1 mg/kg or vehicle
[8] = T1DM mice, insulin 0.1 IU/kg with borapetoside C 0.1 mg/kg or vehicle
[9] = T1DM mice, insulin 0.5 IU/kg with borapetoside C 0.1 mg/kg or vehicle
[10] = T1DM mice, insulin 1.0 IU/kg with borapetoside C 0.1 mg/kg or vehicle
[11] = T2DM mice, insulin 0.1 IU/kg with borapetoside C 0.1 mg/kg or vehicle
[12] = T2DM mice, insulin 0.5 IU/kg with borapetoside C 0.1 mg/kg or vehicle
[13] = T2DM mice, insulin 1.0 IU/kg with borapetoside C 0.1 mg/kg or vehicle

| Compound | glycogen content in liver ([1]; mice with type 2 DM) | Glycogen synthesis in skeletal muscle (glycogen content) ([2]; Normal mice) | Glycogen synthesis in skeletal muscle (glycogen content) ([2]; T1DM mice) | Glycogen synthesis in skeletal muscle (glycogen content) ([2]; T2DM mice) | glycogen content in soleus muscle ([3]; mice with type 2 DM) | AL (activity of lowering plasma glucose levels) [4, 5] | AL (activity of lowering plasma glucose levels) [4, 6] | AL (activity of lowering plasma glucose levels) [4, 7] | AL (activity of lowering plasma glucose levels) [4, 8] | AL (activity of lowering plasma glucose levels) [4, 9] | AL (activity of lowering plasma glucose levels) [4, 10] | AL (activity of lowering plasma glucose levels) [4, 11] | AL (activity of lowering plasma glucose levels) [4, 12] | AL (activity of lowering plasma glucose levels) [4, 13] | glycogen content in liver ([1]; mice with type 1 DM) | glycogen content in liver ([1]; normal mice) | glycogen content in soleus muscle ([3]; mice with type 1 DM) | glycogen content in soleus muscle ([3]; normal mice) |
| --- | --- | --- | --- | --- | --- | --- | --- | --- | --- | --- | --- | --- | --- | --- | --- | --- | --- | --- |
| Insulin: human insulin, Insulin Actrapid HM, a short-acting insulin provided by Novo Nordisk [reference compound] | failed to enhance | 30.2 ± 2.0 μg of glucose per mg of tissue (wet weight) | 30.0 ± 1.0 μg of glucose per mg of tissue (wet weight) | 20.2 ± 0.6 μg of glucose per mg of tissue (wet weight) | failed to enhance | 14.6 ± 0.8% | 37.5 ± 1.1% | 56.8 ± 1.9% | 8.7 ± 1.6% | 11.5 ± 0.6% | 24.0 ± 1.3% | 19.5 ± 1.5% | 27.5 ± 2.6% | 32.0 ± 1.1% |  |  |  |  |
| COC(=O)C1=CCC[C@H]2[C@]3(C)C[C@@H](c4ccoc4)OC(=O)[C@@H]3C[C@@H](O[C@@H]3O[C@H](CO)[C@@H](O)[C@H](O)[C@H]3O)[C@@]12C [Borapetoside C, borapetoside C] |  | 25.1 ± 1.3 μg of glucose per mg of tissue (wet weight) | 23.2 ± 0.7 μg of glucose per mg of tissue (wet weight) | 23.3 ± 0.4 μg of glucose per mg of tissue (wet weight) |  | 17.2 ± 1.2% | 45.7 ± 3.7% | 64.7 ± 1.8 % | 10.5 ± 1.4% | 18.9 ± 2.1% | 32.2 ± 2.1 % | 24.0 ± 1.1% | 31.6 ± 1.6% | 42.5 ± 0.8 % |  |  |  |  |
| C[C@@]12C[C@@H](c3ccoc3)OC(=O)[C@@H]1C[C@@H]1OC(=O)[C@@]3(O)[C@@H](O[C@@H]4O[C@H](CO)[C@@H](O)[C@H](O)[C@H]4O)CC[C@@H]2[C@@]13C [Borapetoside A, borapetoside A] | 146.1±12.0 % of vehicle control |  |  |  | 171.8±12.0 % of vehicle control |  |  |  |  |  |  |  |  |  | 196.9±15.6 % of vehicle control | 257.8±15.8 % of vehicle control | 155.6±8.6 % of vehicle control | 116.5±4.2 % of vehicle control |
